From PubChem BioAssay AID493077 (The Scripps Research Institute Molecular Screening Center, 2011)
Activity calls are given as the source filed them.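 How the source made its calls: active means Zta binding inhibitor with IC50 at or below 10 µM; inactive means IC50 above 10 µM.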

Biological target: Lytic switch protein BZLF1 (Epstein-Barr virus (strain B95-8)) (UniProt P03206)
Assay: EBV Zta DNA binding inhibitor potency, late-stage follow-up, counter-screen for EBNA-1 inhibitor project, biochemical, fluorescence polarization, dose response, assay provider (AID 493077)
Settings: purified Zta, Cy5-ZRE DNA

Chain of Lytic switch protein BZLF1 (Epstein-Barr virus (strain B95-8)) (P03206 whole entry, looked up): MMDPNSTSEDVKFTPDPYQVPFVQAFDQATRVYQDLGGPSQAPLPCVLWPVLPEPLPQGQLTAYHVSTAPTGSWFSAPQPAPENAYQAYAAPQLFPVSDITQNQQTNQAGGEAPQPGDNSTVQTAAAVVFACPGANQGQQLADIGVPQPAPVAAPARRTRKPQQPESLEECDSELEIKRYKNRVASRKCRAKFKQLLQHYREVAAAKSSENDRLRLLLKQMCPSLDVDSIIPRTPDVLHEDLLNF

SMILES | IC50
COc1ccc(-n2nnnc2SCC(=O)c2cc(C)n(CC3CCCO3)c2C)cc1 (stereo not given) | > 111 µM (inactive)
O=C(CSc1nnnn1-c1ccccc1)c1ccn(CC2CCCO2)c1 (stereo not given) | > 111 µM (inactive)
Cc1cc(C(=O)CSc2nnnn2C2CC2)c(C)n1CC1CCCO1 (stereo not given) | > 111 µM (inactive)
COCCn1c(C)cc(C(=O)CSc2nnnn2-c2ccccc2)c1C | > 111 µM (inactive)
Cc1cc(C(=O)CSc2nnnn2-c2ccc(Cl)cc2)c(C)n1CC1CCCO1 (stereo not given) | > 111 µM (inactive)
COc1ccc2nc(NC(=O)c3ccc(C)c(C)c3)sc2c1 | > 111 µM (inactive)
Cc1cccc(-n2nnnc2SCC(=O)c2cc(C)n(CC3CCCO3)c2C)c1 (stereo not given) | > 111 µM (inactive)
Cc1cc(C(=O)CSc2nnnn2-c2ccccc2)c(C)n1Cc1cccs1 | > 111 µM (inactive)
Cc1cc(C(=O)CSc2nnnn2C)c(C)n1CC1CCCO1 (stereo not given) | > 111 µM (inactive)
Cc1ccc(-n2nnnc2SCC(=O)c2cc(C)n(CC3CCCO3)c2C)cc1 (stereo not given) | > 111 µM (inactive)
Cc1ccc(C(=O)Nc2nc3cc(Br)ccc3s2)cc1C | > 111 µM (inactive)
Cc1cc(C(=O)CSc2nnnn2-c2cccc(F)c2)c(C)n1CC1CCCO1 (stereo not given) | > 111 µM (inactive)
COc1ccc2sc(NC(=O)c3ccc(C)c(C)c3)nc2c1 | > 111 µM (inactive)
Cc1cc(C(=O)CSc2nnnn2-c2ccccc2)c(C)n1C | > 111 µM (inactive)
Cc1ccccc1-n1nnnc1SCC(=O)c1cc(C)n(CC2CCCO2)c1C (stereo not given) | > 111 µM (inactive)
COc1cccc2sc(NC(=O)c3ccc(C)c(C)c3)nc12 | > 111 µM (inactive)
CCn1c(C)cc(C(=O)CSc2nnnn2-c2ccccc2)c1C | > 111 µM (inactive)

More lines, now with the values ahead:

IC50 | SMILES
> 111 µM (inactive) | CS(=O)(=O)c1ccc2nc(NC(=O)c3cccc(Cl)c3)sc2c1
> 111 µM (inactive) | COc1cccc(C(=O)Nc2nc3ccc(S(C)(=O)=O)cc3s2)c1
> 111 µM (inactive) | CS(=O)(=O)c1ccc2nc(NC(=O)c3ccccc3F)sc2c1
> 111 µM (inactive) | CS(=O)(=O)c1ccc2nc(NC(=O)c3ccc(Cl)cc3)sc2c1
> 111 µM (inactive) | Cc1cccc(C(=O)Nc2nc3ccc(S(C)(=O)=O)cc3s2)c1
> 111 µM (inactive) | Cc1ccc(C(=O)Nc2nc3ccc(S(C)(=O)=O)cc3s2)cc1
> 111 µM (inactive) | CS(=O)(=O)c1ccc2nc(NC(=O)c3cccc(F)c3)sc2c1
> 111 µM (inactive) | Cc1ccccc1C(=O)Nc1nc2ccc(S(C)(=O)=O)cc2s1
> 111 µM (inactive) | COc1ccccc1C(=O)Nc1nc2ccc(S(C)(=O)=O)cc2s1
> 111 µM (inactive) | Cc1ccc(C(=O)Nc2nc3ccc(Br)cc3s2)cc1C
> 111 µM (inactive) | CS(=O)(=O)c1ccc2nc(NC(=O)c3ccccc3Cl)sc2c1
> 111 µM (inactive) | Cc1ccc(C(=O)Nc2nc3cc(F)ccc3s2)cc1C
> 111 µM (inactive) | COc1ccc(C(=O)Nc2nc3ccc(S(C)(=O)=O)cc3s2)cc1
